From the NIST ThermoML archive (doi:10.1016/j.jct.2007.09.001) come the findings set out here.

± gives the expanded uncertainty stated by the source.

The conditions of this data set: 298.15 K, Calvet calorimetry with correction to 298 K for gas heat capacity.

On to `Cc1cc(C)n(C)n1` [1,3,5-trimethylpyrazole], for which the “molar enthalpy of sublimation” value (Crystal) came to 14.7 ± 0.765 kcal/mol.

Take `Cc1cc[nH]n1` [3-methylpyrazole]: where the note is “Liquid”, the “molar enthalpy of vaporization” value was determined as 15.8 ± 0.956 kcal/mol.
